Test results: patent US20230257396A1, “MACROCYCLES AND THEIR USE” (BLOSSOMHILL THERAPEUTICS, INC., priority 2020, published 2023)
Numbering of substitutions follows the chain as printed.

Assays:
Experiment in all cases: KINOMEscan kinase binding assay (Eurofins/DiscoveRx), % Ctrl
Settings in all cases: 1 μM
kinases [1] = biological target: T1, kinases (Homo sapiens, UniProt P07949, V804M)
T1 construct: purchased Eurofins/DiscoveRx; host or cells: E. coli BL21-derived host (T7 phage display) for most kinases; HEK-293 for the rest
In short: (§1)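 Competition binding, 1 h RT: phage-tagged or HEK-293-expressed DNA-tagged kinase + immobilized ligand + compound. Eluate kinase by qPCR. % Ctrl = (test − positive ctrl)/(negative ctrl − positive ctrl) × 100; lower means stronger binding.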

kinases [2] = biological target: T2, kinases (Homo sapiens, UniProt P00533, DEL746-750)
T2 construct: purchased Eurofins/DiscoveRx; host or cells: E. coli BL21-derived host (T7 phage display) for most kinases; HEK-293 for the rest
In short: as §1

kinases [3] = biological target: T3, kinases (Homo sapiens, UniProt P36888, R834Q)
T3 construct: purchased Eurofins/DiscoveRx; host or cells: E. coli BL21-derived host (T7 phage display) for most kinases; HEK-293 for the rest
T3 sequence (P36888 27-993 R834Q): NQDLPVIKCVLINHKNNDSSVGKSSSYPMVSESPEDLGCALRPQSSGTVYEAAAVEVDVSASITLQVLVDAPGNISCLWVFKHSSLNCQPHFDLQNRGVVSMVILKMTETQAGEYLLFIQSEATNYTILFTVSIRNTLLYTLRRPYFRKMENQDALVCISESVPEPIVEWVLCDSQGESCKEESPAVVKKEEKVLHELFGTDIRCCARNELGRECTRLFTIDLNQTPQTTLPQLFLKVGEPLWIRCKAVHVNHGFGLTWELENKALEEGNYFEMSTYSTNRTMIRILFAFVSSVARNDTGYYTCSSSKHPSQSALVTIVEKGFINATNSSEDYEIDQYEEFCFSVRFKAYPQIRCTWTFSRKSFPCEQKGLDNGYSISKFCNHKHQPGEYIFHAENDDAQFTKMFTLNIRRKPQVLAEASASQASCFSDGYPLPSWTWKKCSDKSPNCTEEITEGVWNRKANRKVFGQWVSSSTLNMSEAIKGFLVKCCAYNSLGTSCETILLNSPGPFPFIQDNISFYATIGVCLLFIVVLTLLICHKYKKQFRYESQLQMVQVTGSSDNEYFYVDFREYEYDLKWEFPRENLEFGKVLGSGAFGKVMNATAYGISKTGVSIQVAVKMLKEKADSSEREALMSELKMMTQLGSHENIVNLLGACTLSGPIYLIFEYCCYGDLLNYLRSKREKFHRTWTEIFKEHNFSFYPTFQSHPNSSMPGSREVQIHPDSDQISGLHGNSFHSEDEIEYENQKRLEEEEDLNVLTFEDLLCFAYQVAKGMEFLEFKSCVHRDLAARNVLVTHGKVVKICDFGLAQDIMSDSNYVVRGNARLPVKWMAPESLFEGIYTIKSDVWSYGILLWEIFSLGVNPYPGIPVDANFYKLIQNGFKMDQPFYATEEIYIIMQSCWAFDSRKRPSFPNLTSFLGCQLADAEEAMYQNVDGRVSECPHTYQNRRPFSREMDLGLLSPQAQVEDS
In short: as §1

kinases [4] = tested on: kinases
In short: as §1

kinases [5] = biological target: T4, kinases (Homo sapiens, UniProt P36888, D835Y)
T4 construct: purchased Eurofins/DiscoveRx; host or cells: E. coli BL21-derived host (T7 phage display) for most kinases; HEK-293 for the rest
T4 sequence (P36888 27-993 D835Y): T3 sequence (P36888 27-993 R834Q) with Q808R, D809Y
In short: as §1

[6] = target EGFR(L747-E749del, A750P)
[7] = target EGFR(L747-S752del, P753S)
[8] = target EGFR(L747-T751del, Sins)

T1 sequence (P07949 29-1114 V804M): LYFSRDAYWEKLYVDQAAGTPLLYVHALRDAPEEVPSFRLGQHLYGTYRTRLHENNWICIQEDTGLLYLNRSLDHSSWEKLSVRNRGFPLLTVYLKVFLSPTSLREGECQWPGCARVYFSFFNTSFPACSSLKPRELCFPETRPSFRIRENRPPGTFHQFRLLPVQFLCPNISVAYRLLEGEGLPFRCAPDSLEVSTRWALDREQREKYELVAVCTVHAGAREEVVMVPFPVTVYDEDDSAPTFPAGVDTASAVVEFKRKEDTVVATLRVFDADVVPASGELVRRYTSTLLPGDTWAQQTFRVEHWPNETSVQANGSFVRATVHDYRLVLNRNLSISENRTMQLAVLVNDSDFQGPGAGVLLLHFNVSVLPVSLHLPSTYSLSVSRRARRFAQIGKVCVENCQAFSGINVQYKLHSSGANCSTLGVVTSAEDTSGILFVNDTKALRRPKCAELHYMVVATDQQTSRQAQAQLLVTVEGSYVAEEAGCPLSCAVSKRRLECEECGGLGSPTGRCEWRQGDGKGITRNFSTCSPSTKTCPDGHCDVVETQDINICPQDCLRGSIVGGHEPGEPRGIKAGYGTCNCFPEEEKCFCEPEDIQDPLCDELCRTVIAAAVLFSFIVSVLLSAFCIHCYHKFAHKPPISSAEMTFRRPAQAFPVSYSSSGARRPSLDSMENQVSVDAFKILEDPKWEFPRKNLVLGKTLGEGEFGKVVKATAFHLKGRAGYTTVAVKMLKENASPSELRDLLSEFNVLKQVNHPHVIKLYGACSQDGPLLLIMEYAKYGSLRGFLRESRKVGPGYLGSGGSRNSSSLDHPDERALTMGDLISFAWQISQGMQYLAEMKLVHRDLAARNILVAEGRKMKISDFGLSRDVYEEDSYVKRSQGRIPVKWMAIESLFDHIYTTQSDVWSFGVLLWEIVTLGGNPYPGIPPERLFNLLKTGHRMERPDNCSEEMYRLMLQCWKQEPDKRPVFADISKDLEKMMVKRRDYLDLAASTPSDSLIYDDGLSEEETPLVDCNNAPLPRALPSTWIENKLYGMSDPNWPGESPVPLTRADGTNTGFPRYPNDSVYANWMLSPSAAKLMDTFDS

Row | Structure (SMILES) | % Ctrl, RET(V804M) (kinases [1]; target RET(V804M)) | % Ctrl, EGFR(E746-A750del) (kinases [2]; target EGFR(E746-A750del)) | % Ctrl, FLT3(R834Q) (kinases [3]; target FLT3(R834Q)) | % Ctrl, EGFR(L747-E749del, A750P) (kinases [4]; [6]) | % Ctrl, EGFR(L747-S752del, P753S) (kinases [4]; [7]) | % Ctrl, EGFR(L747-T751del, Sins) (kinases [4]; [8]) | % Ctrl, FLT3(ITD) (kinases [4]; target FLT3(ITD)) | % Ctrl, FLT3(ITD, D835V) (kinases [4]; target FLT3(ITD, D835V)) | % Ctrl, FLT3(ITD, F691L) (kinases [4]; target FLT3(ITD, F691L)) | % Ctrl, FLT3(D835Y) (kinases [5]; target FLT3(D835Y)) | % Ctrl, RET(V804M) (kinases [1]; RET(V804M)) | % Ctrl, EGFR(E746-A750del) (kinases [2]; EGFR(E746-A750del)) | % Ctrl, FLT3(R834Q) (kinases [3]; FLT3(R834Q)) | % Ctrl, EGFR(L747-E749del, A750P) (kinases [4]; EGFR(L747-E749del, A750P)) | % Ctrl, EGFR(L747-S752del, P753S) (kinases [4]; EGFR(L747-S752del, P753S)) | % Ctrl, EGFR(L747-T751del, Sins) (kinases [4]; EGFR(L747-T751del, Sins)) | % Ctrl, FLT3(ITD) (kinases [4]; FLT3(ITD)) | % Ctrl, FLT3(ITD, D835V) (kinases [4]; FLT3(ITD, D835V)) | % Ctrl, FLT3(ITD, F691L) (kinases [4]; FLT3(ITD, F691L)) | % Ctrl, FLT3(D835Y) (kinases [5]; FLT3(D835Y))
1 | Cc1cc2c([nH]1)/C=C1\C(=O)Nc3ccc(cc31)-c1ccnn1CCOCCN(C)C2=O [Ex. 41, [19a(20)Z]-2,5-dimethyl-6,7,9,10-tetrahydro-1H-15,17-(ethanediylidene)pyrazolo[1,5-d]dipyrrolo[3,4-h:2′,3′-k][1,4,14]oxadiazacyclohexadecine-4,19(5H,18H)-dione] |  |  |  |  |  |  |  |  |  |  | 19 % Ctrl | 36 % Ctrl | 15 % Ctrl | 87 % Ctrl | 78 % Ctrl | 77 % Ctrl | 13 % Ctrl | 0.8 % Ctrl | 0.35 % Ctrl | 8.8 % Ctrl
2 | Cc1cc2c([nH]1)/C=C1\C(=O)Nc3ccc(cc31)-c1ccnn1CCOCCNC2=O [Ex.39, [19a(20)Z]-2-methyl-6,7,9,10-tetrahydro-1H-15,17-(ethanediylidene)pyrazolo[1,5-d]dipyrrolo[3,4-h:2′,3′-k][1,4,14]oxadiazacyclohexadecine-4,19(5H,18H)-dione] |  |  |  |  |  |  |  |  |  |  | 94 % Ctrl | 69 % Ctrl | 93 % Ctrl | 68 % Ctrl | 66 % Ctrl | 60 % Ctrl | 89 % Ctrl | 17 % Ctrl | 27 % Ctrl | 96 % Ctrl
3 | Cc1cc2c([nH]1)/C=C1\C(=O)Nc3ccc(cc31)-c1cnn(C)c1CNCCN(C)C2=O [Ex. 125, [3a(4)Z]-6,9,14-trimethyl-9,10,11,12,13,14-hexahydro-1,17-(ethanediylidene)pyrazolo[4,3-m]dipyrrolo[3,2-f:3′,4′-i][1,4]diazacyclopentadecine-3,8(2H,5H)-dione] |  |  |  |  |  |  |  |  |  |  | 0 % Ctrl | 20 % Ctrl | 0.3 % Ctrl | 22 % Ctrl | 48 % Ctrl | 54 % Ctrl | 0 % Ctrl | 0 % Ctrl | 0 % Ctrl | 0 % Ctrl
4 | Cc1cc2c([nH]1)/C=C1\C(=O)Nc3cnc(cc31)-c1cn[nH]c1CNCCN(C)C2=O [Ex. 55, [3a(4)Z]-6,9-dimethyl-9,10,11,12,13,14-hexahydro-17,1-(azenometheno)pyrazolo[4,3-m]dipyrrolo[3,2-f:3′,4′-i][1,4]diazacyclopentadecine-3,8(2,5H)-dione] | 0.3 % Ctrl | 74 % Ctrl | 25 % Ctrl | 82 % Ctrl | 56 % Ctrl | 66 % Ctrl | 0.3 % Ctrl | 1.2 % Ctrl | 0.1 % Ctrl | 2 % Ctrl |  |  |  |  |  |  |  |  |  | 
5 | Cc1cc2c([nH]1)/C=C1\C(=O)Nc3ccc(cc31)-c1c(noc1C)CNCCN(C)C2=O [Ex. 139, [3a(4)Z]-6,9,16-trimethyl-10,11,12,13-tetrahydro-2H-1,17-(ethanediylidene)[1,2]oxazolo[4,3-m]dipyrrolo[3,2-f:3′,4′-i][1,4]diazacyclopentadecine-3,8(5H,9H)-dione] | 23 % Ctrl | 72 % Ctrl | 39 % Ctrl | 71 % Ctrl | 77 % Ctrl | 81 % Ctrl | 8.1 % Ctrl | 1.2 % Ctrl | 0.9 % Ctrl | 2.5 % Ctrl |  |  |  |  |  |  |  |  |  | 

More lines, now with the values ahead:

Row | % Ctrl, RET(V804M) (kinases [1]; target RET(V804M)) | % Ctrl, EGFR(E746-A750del) (kinases [2]; target EGFR(E746-A750del)) | % Ctrl, FLT3(R834Q) (kinases [3]; target FLT3(R834Q)) | % Ctrl, EGFR(L747-E749del, A750P) (kinases [4]; [6]) | % Ctrl, EGFR(L747-S752del, P753S) (kinases [4]; [7]) | % Ctrl, EGFR(L747-T751del, Sins) (kinases [4]; [8]) | % Ctrl, FLT3(ITD) (kinases [4]; target FLT3(ITD)) | % Ctrl, FLT3(ITD, D835V) (kinases [4]; target FLT3(ITD, D835V)) | % Ctrl, FLT3(ITD, F691L) (kinases [4]; target FLT3(ITD, F691L)) | % Ctrl, FLT3(D835Y) (kinases [5]; target FLT3(D835Y)) | % Ctrl, RET(V804M) (kinases [1]; RET(V804M)) | % Ctrl, EGFR(E746-A750del) (kinases [2]; EGFR(E746-A750del)) | % Ctrl, FLT3(R834Q) (kinases [3]; FLT3(R834Q)) | % Ctrl, EGFR(L747-E749del, A750P) (kinases [4]; EGFR(L747-E749del, A750P)) | % Ctrl, EGFR(L747-S752del, P753S) (kinases [4]; EGFR(L747-S752del, P753S)) | % Ctrl, EGFR(L747-T751del, Sins) (kinases [4]; EGFR(L747-T751del, Sins)) | % Ctrl, FLT3(ITD) (kinases [4]; FLT3(ITD)) | % Ctrl, FLT3(ITD, D835V) (kinases [4]; FLT3(ITD, D835V)) | % Ctrl, FLT3(ITD, F691L) (kinases [4]; FLT3(ITD, F691L)) | % Ctrl, FLT3(D835Y) (kinases [5]; FLT3(D835Y)) | Structure (SMILES)
6 | 81 % Ctrl | 78 % Ctrl | 99 % Ctrl | 100 % Ctrl | 61 % Ctrl | 96 % Ctrl | 73 % Ctrl | 24 % Ctrl | 49 % Ctrl | 45 % Ctrl |  |  |  |  |  |  |  |  |  |  | Cc1cc2c([nH]1)/C=C1\C(=O)Nc3cc(Cl)c(cc31)OCCO[C@@H](C(=O)N1CCN(C)CC1)CN(C)C2=O [Ex. 138, [7R,16a(17)Z]-19-chloro-2,5-dimethyl-7-(4-methylpipearazine-1-carbonyl)-6,7,9,10-tetrahydro-1H-12,14-(ethanediylidene)dipyrrolo[3,2-i:3′,4′-l][1,4,7]dioxazacyclopentadecine-4,16(5H,15H)-dione]
7 |  |  |  |  |  |  |  |  |  |  | 57 % Ctrl | 98 % Ctrl | 65 % Ctrl | 100 % Ctrl | 100 % Ctrl | 100 % Ctrl | 44 % Ctrl | 9.1 % Ctrl | 29 % Ctrl | 14 % Ctrl | Cc1cc2c([nH]1)/C=C1\C(=O)Nc3cc(Cl)c(cc31)OCCO[C@@H](C(=O)N(C)C)CN(C)C2=O [Ex. 137, [7R,16a(17)Z]-19-chloro-N,N,2,5-tetramethyl-4,16-dioxo-4,5,6,7,9,10,15,16-octahydro-1H-12,14-(ethanediylidene)dipyrrolo[3,2-i:3′,4′-l][1,4,7]dioxazacyclopentadecine-7-carboxamide]
